The first test relates to PC-3 prostate cancer cell line. Nature of the test: SRB assay cell viability, PC-3 prostate cancer cell line. The format is cell-based, human. Particulars: Homo sapiens, PC-3 prostate cancer cell line, Table II prints no unit, μM printed, read-out: SRB assay: 50% inhibition of cancer cell proliferation of sample concentration (IC50) of PC-3 prostate cancer cell line. (In SRB staining, fixed cells bind dye roughly in proportion to their protein.)
For the molecule `O=C1c2ccccc2C(=O)c2c1cc(Sc1cccc(F)c1)c1nsnc21` [C38, 4-(3-fluorophenylthio)anthra[2,1-c][1,2,5] thiadiazol-6,11-dione], the IC50 was found to be 8.82 µM.
The same measure, in the same setting: the same measure for `O=C1c2ccccc2C(=O)c2c1cc(Sc1cccc(Br)c1)c1nsnc21` [C40, 4-(3-bromophenylthio)anthra[2,1-c][1,2,5] thiadiazol-6,11-dione]: 12.4 µM.
The same measure, in the same setting: the same measure for `Cc1ccc(Sc2cc3c(c4nsnc24)C(=O)c2ccccc2C3=O)cc1` [C44, 4-(4-methyl-phenyl-thio)anthra[2,1-c] [1,2,5]thiadiazol-6,11-dione]: > 15 µM.
Still for that read-out and setting: to `Cc1cc(C)cc(Sc2cc3c(c4nsnc24)C(=O)c2ccccc2C3=O)c1` [C49, 4-(3,5-dimethyl-phenyl-thio)anthra[2,1-c] [1,2,5]thiadiazol-6,11-dione] belongs > 15 µM; to `CCc1ccccc1Sc1cc2c(c3nsnc13)C(=O)c1ccccc1C2=O` [C51, 4-(2-ethyl-phenylthio)anthra[2,1-c][1,2,5] thiadiazol-6,11-dione], > 15 µM; to `CC(C)c1ccccc1Sc1cc2c(c3nsnc13)C(=O)c1ccccc1C2=O` [C52, 4-(2-isopropyl-phenyl-thio)anthra[2,1-c] [1,2,5]thiadiazol-6,11-dione], > 15 µM.
On to `O=C1c2ccccc2C(=O)c2c1cc(SCc1ccccc1Cl)c1nsnc21` [C53, 4-(2-chloro-benzylthio)anthra[2,1-C] [1,2,5]thiadiazol-6,11-dione], for which the IC50 is 5.84 µM.
On the same count and under the same terms, to `Cc1cccc(Nc2cc3c(c4nsnc24)C(=O)c2ccccc2C3=O)c1` [C62, 4-(m-tolylamino)anthra[2,1-c][1,2,5] thiadiazol-6,11-dione] belongs 0.29 µM; to `O=C1c2ccccc2C(=O)c2c1cc(Nc1cccc(Cl)c1)c1nsnc21` [C63, 4-(3-chloro-phenylamino)anthra[2,1-c] [1,2,5]thiadiazol-6,11-dione], 2.28 µM.

Staying with this test, now noted: PC-3 prostate cancer cell line, Table II prints no unit, μM printed, read-out: SRB assay: 50% inhibition of cancer cell proliferation of sample concentration (IC50) of PC-3 prostate cancer cell line.
In the case of `Cc1cccc(Sc2cc3c(c4nsnc24)C(=O)c2ccccc2C3=O)c1` [C47, 4-(m-phenylmethylthio)anthra[2,1-c] [1,2,5]thiadiazol-6,11-dione], the IC50 was > 15 µM.

The record behind these values is patent US8877748B2, “Heterocyclic fused anthraquinone derivatives, manufacturing method and pharmaceutical composition using thereof” (National Defense Medical Center, priority 2012, dated 2014).
